In patent US20170340588A1, “MODULATION OF REGULATORY T CELLS VIA G-COUPLED PROTEIN RECEPTOR 43” (President and Fellows of Harvard College, priority 2013, published 2017):
Like-named read-outs stand apart in the source and are kept apart here.

Assays:
[1] = Stability of SCFA mix in mouse water bottle over time; format: physicochemical; conditions: for SCFA mix in mouse water bottle over time, Day 1 / SCFA mix in mouse water bottle over time, Day 4 / SCFA mix in mouse water bottle over time, Day 7 / SCFA mix in mouse water bottle over time, Day 10 / SCFA mix in mouse water bottle over time, Day 14 / SCFA mix in mouse water bottle over time, Day 90: input 200 mM
Procedure: Mice were treated for 21 days with either sodium acetate (150 mM), sodium propionate (150 mM), sodium butyrate (100 mM) or a SCFA mix (67.5 mM acetate, 40 mM Butyrate, 25.9 mM Propionate) in the drinking water. In in vivo drinking water treatment experiments, control mice received pH and sodium-matched water. At the conclusion of the experiment mice were removed from isolators and processed immediately.

[2] = mouse, in vivo
Procedure: At the conclusion of the experiment mice were removed from isolators and processed immediately.
Cecal or small intestinal contents were collected immediately after animals were sacrificed and flash frozen in N2(1). Samples were mashed in 500 μl HPLC grade water and centrifuged at >14,000 x g, the resulting supernatant was then passed through a 0.22 μm syringe filter to remove bacterial cells and debris. Samples we then acidified with 1/10 volume of 0.01M H2SO4, heated and passed through a condenser to isolate volatile compounds within a sample. SCFA analyses were performed using an Agilent 1200 series HPLC and a Poroshell 120 SB C18 column (2.7 μm, 3.0×100mm) with guard column (Agilent Technologies). Sulfuric acid (0.01M) was used as the mobile phase. SCFA concentrations were weight corrected.

colonic Treg (cTreg) = test: Antibiotic (vancomycin) treatment of SPF mice with or without SCFA; format: in vivo; conditions: SPF mice, vancomycin alone in drinking water
Procedure: Science 341: 1645 (2013). […] The crude cell suspension was loaded onto a 40%/90% Percoll (GE Healthcare) gradient and centrifuged at 720 x g for 25 min at room temperature with acceleration and brake turned off. LP lymphocytes were collected from the 40%/90% interface. Intracellular staining of the transcription factors Foxp3, Helios and T-bet was performed using the Foxp3 Fix/Perm Buffer Set (Biolegend). For detection of intracellular cytokines, cells were first stimulated for 4 h with 50 ng/ml PMA and 1 μg/ml ionomycin in the presence of Brefeldin A (All obtained from Sigma), followed by staining for surface markers. Cells were then fixed and permeabilized using the Foxp3 Fix/Perm Buffer Set (Biolegend) and stained for intracellular cytokines. The following antibodies were used: […] All antibodies were obtained from Biolegend unless otherwise noted. Flow cytometry was performed using LSRII and data were analyzed with FlowJo software (TreeStar, Inc.). Cell sorting was performed using a […] at the Dana-Farber Cancer Institute Flow Cytometry Core.

Structure (SMILES) | SCFA mix in mouse water bottle over time, Input (Day 0) [1] | SCFA mix in mouse water bottle over time, Day 1 [1] | SCFA mix in mouse water bottle over time, Day 4 [1] | SCFA mix in mouse water bottle over time, Day 7 [1] | SCFA mix in mouse water bottle over time, Day 10 [1] | SCFA mix in mouse water bottle over time, Day 14 [1] | SCFA mix in mouse water bottle over time, Day 90 [1] | SCFA levels, SPF SI [2] | SCFA levels, cecal contents, ASF [2] | SCFA levels, cecal contents, GF [2] | SCFA levels, cecal contents, SPF [2] | other results
CC(=O)O [Acetate, acetic acid] | 200 mM | 195 mM | 220.1 mM | 192.2 mM | 196.3 mM | 202.5 mM | 56.1 mM | 15.19 ± 9.2 µmol/g | 28.69 ± 8.32 µmol/g | 2.82 ± 0.534 µmol/g | 40.66 ± 5.86 µmol/g | SCFA levels, SPF SI + P [2]: 15.46 ± 3.69 µmol/g; SCFA levels, cecal contents, GF + A [2]: 16.18 ± 4.65 µmol/g; SCFA levels, cecal contents, GF + Mic [2]: 20.83 ± 0.47 µmol/g; SCFA levels, cecal contents, SPF + A [2]: 53.95 ± 1.91 µmol/g; SCFA levels, cecal contents, SPF + Vanco [2]: 8.63 ± 1.73 µmol/g
CCCC(=O)O [Butyrate, butyric acid] | 200 mM | 203.09 mM | 202.85 mM | 202.27 mM | 202.69 mM | 202.19 mM | 38 mM | 7.183 ± 2.39 µmol/g | 16.89 ± 1.46 µmol/g | 2.13 ± 0.598 µmol/g | 18.52 ± 4.92 µmol/g | SCFA levels, cecal contents, SPF + B ([2]; BALB/c, 2 weeks): 29.78 ± 6.202 µmol/g; SCFA levels, cecal contents, GF + B ([2]; BALB/c, 21 days): 11.46 ± 1.46 µmol/g; SCFA levels, cecal contents, GF + Mic ([2]; BALB/c, 21 days): 20.6 ± 3.96 µmol/g; SCFA levels, SPF SI + P ([2]; 2 weeks): 6.45 ± 2.11 µmol/g; SCFA levels, cecal contents, SPF + Vanco ([2]; 4 weeks): 1.04 ± 0.903 µmol/g
CN[C@H](CC(C)C)C(=O)N[C@H]1C(=O)N[C@@H](CC(N)=O)C(=O)N[C@H]2C(=O)N[C@H]3C(=O)N[C@H](C(=O)N[C@H](C(=O)O)c4cc(O)cc(O)c4-c4cc3ccc4O)[C@H](O)c3ccc(c(Cl)c3)Oc3cc2cc(c3O[C@@H]2O[C@H](CO)[C@@H](O)[C@H](O)[C@H]2O[C@H]2C[C@](C)(N)[C@H](O)[C@H](C)O2)Oc2ccc(cc2Cl)[C@H]1O [vancomycin, reference compound] |  |  |  |  |  |  |  |  |  |  |  | cTreg level (colonic Treg (cTreg)): reduced
